Here are results for one compound from patent US12122783B2, “Stable salt of 5,10-methylene-(6R)-tetrahydrofolic acid” (MERCK & CIE, priority 2013, dated 2024).

Structures are written as SMILES. Counter-ions that a name gives are not always drawn.

The nature of data set [1]: Stability in 85% ethanol at room temperature (XRPD). The conditions noted are these: 85% EtOH, stirred 5 h, filtered and dried. Type of data set: physicochemical. As for the experimental part:
Powder X-Ray Diffraction (Bruker D8 Advance): Copper Kα radiation, 40 kV/40 mA, LynxEye detector, Bragg-Brentano reflection geometry, 0.02° 2θ step size, 37 s step time, 2.5-50° 2θ range. Powder samples were measured in 0.1-mm or 0.5-mm deep silicon single-crystal sample holders. No special treatment was used in preparing the samples other than the application of slight pressure to get a flat surface. An ambient air atmosphere was used for all measurements, and the samples were rotated during the measurement. Absent any information to the contrary X-Ray Diffraction data is shown as reflection data.
• (b) Stability in 85% ethanol at room temperature
(6R)-5,10-CH2-THF hemisulfate salt (3.01 g) was dispersed in 100 ml 85% EtOH at room temperature and stirred for 5 h, then filtered and dried at 30° C. and 8 mbar for 12 hours (over night).

Data set [2] can be described thus: Phase I/II study ISO-CC-002, pharmacokinetics/pharmacodynamics versus Levoleucovorin in tumor tissue, adjacent mucosa and blood plasma. Type of data set: in vivo. The conditions noted are these: colon cancer patients. As for the experimental part: (b) In a single-blinded, randomized phase I/II study (ISO-CC-002) performed on 32 patients diagnosed with colon cancer the pharmacokinetic and pharmacodynamic properties of (6R)-5,10-CH2-THF hemisulfate compared to Levoleucovorin in tumor tissue, adjacent mucosa and blood plasma were investigated. The study was performed at the Sahlgrenska University Hospital in Göteborg, Sweden. […] The concentrations of methylenetetrahydrofolate and tetrahydrofolate in both tumor and adjacent mucosa were also much higher after administration of (6R)-5,10-CH2-THF hemisulfate than those obtained after administration of Levoleucovorin.

A short description of data set [3]: Long-term stability of lyophilisates stored in air, content by HPLC. The conditions noted are these: room temperature, pharmaceutical composition such as a lyophilisate. The class given is physicochemical. As for the experimental part:
In order to determine the long-term stabilities of (6R)-5,10-CH2-THF hemisulfate salt as pharmaceutical compositions, more specifically as lyophilisates (as prepared according to e.g. Example 5), lyophilisates were stored in air at 25° C. and at 60% relative humidity. The content of (6R)-5,10-CH2-THF hemisulfate salt remaining was measured by HPLC at periodic intervals and is given by comparison with the initial value (% rel.).

Regarding `Nc1nc2c(c(=O)[nH]1)N1CN(c3ccc(C(=O)N[C@@H](CCC(=O)O)C(=O)O)cc3)C[C@H]1CN2` [(6R)-5,10-CH2-THF hemisulfate salt, 5,10-methylene-(6R)-tetrahydrofolic acid], the “X-ray pattern distinctive for crystal form Type 1” value in data set [1] is listed as “remained unchanged”. In addition, in data set [2] (blood plasma), the “Exposure of methylenetetrahydrofolate compared to Levoleucovorin” value was “substantially greater” and the “Peak plasma concentrations of methylenetetrahydrofolate compared to Levoleucovorin” value is reported as “substantially greater”. In addition, in data set [2] (both tumor and adjacent mucosa), the “Concentration of methylenetetrahydrofolate compared to Levoleucovorin” value is listed as “much higher” and the “Concentration of tetrahydrofolate compared to Levoleucovorin” value is “much higher”. The “Stability over a long period of time (conclusion from Table 12)” value in data set [3] is “highly stable”.
